Results: paper PMC11938010, “Positive Charge in an Antimalarial Compound Unlocks Broad-Spectrum Antibacterial Activity” (JACS Au, 2025)
In brackets after ≈: the same amount, converted by molar mass. Like-named read-outs stand apart in the source and are kept apart here.

Legend:
[1] = tested on: Staphylococcus aureus ssp. Aureus; test: In vitro antibacterial activity (MIC), S. aureus; type: cell-based; conditions: Staphylococcus aureus, read-out: Sa MIC95
[2] = tested on: Plasmodium falciparum NF54; test: P. falciparum in vitro drug sensitivity assay on asexual blood stage parasites ([3H]-hypoxanthine incorporation); type: cell-based; conditions: Plasmodium falciparum, NF54, Table 1 and main text; read-out: PfNF54 IC50
Escherichia coli ∆tolC = test: microbe, parasite or virus in culture; type: cell-based; conditions: Escherichia coli
[3] = tested on: Mycobacterium tuberculosis (Mtb) strain H37Rv; test: microbe, parasite or virus in culture; type: cell-based; conditions: 168 h, 7 days, footnote b: not active at maximum solubility, read-out: MtbH37Rv MIC90
Acinetobacter baumannii = test: In vitro antibacterial activity (growth inhibition, OD600), A. baumannii; type: cell-based; conditions: for MIC: read-out: Ab MIC95
[4] = tested on: Streptococcus pneumoniae (DSM20566); test: In vitro antibacterial activity (MIC), S. pneumoniae; type: cell-based; conditions: Streptococcus pneumoniae, DSM20566, read-out: Sp MIC95
E. coli K12 = test: In vitro antibacterial activity (growth inhibition, OD600), E. coli wild-type; type: cell-based; conditions: Escherichia coli, Table 1 and main text
in vitro = conditions: human, HepG2 CC50, 48 h, MTT
[5] = tested on: Pseudomonas aeruginosa PA14; test: In vitro antibacterial activity (growth inhibition, OD600), P. aeruginosa; type: cell-based; conditions: PA14, 50 μM compound, Table 1 and main text, read-out: PA14 inh. at 50 μM
Solubility in 7H9 medium = type: physicochemical; conditions: M. tuberculosis growth medium (7H9)
[6] = Table S2, with standard deviation
[7] = 50 μM compound, Table 1 and main text, read-out: Ab inh. at 50 μM
[8] = K12, 50 μM compound, read-out: EcK12 inh. at 50 μM
[9] = 50 µM, Table S1, with standard deviation, read-out: Ab inh. at 50 µM (%)
[10] = K12, read-out: EcK12 inh. at 50 μM, 50 μM compound

Structure (SMILES) | MIC ([1]; Table 1 and main text) [µM] | MIC [1, 6] [µM] | IC50 [2] [nM] | MIC (Escherichia coli ∆tolC; read-out: EcΔtolC MIC95) [µM] | MIC (Escherichia coli ∆tolC; read-out: Ec∆tolC MIC95 (µM)) [µM] | MIC90 [3] [µM] | inhibition at 50 µM (Acinetobacter baumannii; [7]) [%] | MIC ([4]; Table 1 and main text) [µM] | MIC [4, 6] [µM] | inhibition at 50 µM (E. coli K12; [8]) [%] | CC50 (in vitro) [nM] | inhibition at 50 µM [5] [%] | inhibition at 50 µM (Escherichia coli ∆tolC; read-out: Ec∆tolC inh. at 50 µM (%)) [%] | inhibition at 50 µM (Acinetobacter baumannii; [9]) [%] | 7h9 media Sol. (Solubility in 7H9 medium) [µM] | inhibition at 50 µM (E. coli K12; [10]) [%] | MIC (Acinetobacter baumannii; Table S1, printed inside the inhibition column, with standard deviation, unit from Table 1 footnote) [µM] | MIC (Acinetobacter baumannii; printed inside the Ab inhibition column, Table 1 and main text) [µM]
NCc1ccc(NC(=O)c2cc(-c3cc(Cl)ccc3O)[nH]n2)cc1C(F)(F)F [Compound 10A] | 29 (≈ 11.9 µg/mL) | 29 ± 3 (≈ 11.9 µg/mL) | 150 | 22.9 (≈ 9.41 µg/mL) | 22.9 ± 0.1 (≈ 9.41 µg/mL) | 64 (≈ 26.3 µg/mL) | 86 | 23 (≈ 9.45 µg/mL) | 23 ± 3 (≈ 9.45 µg/mL) | 61 | 13000 | < 10 |  |  |  |  |  | 
O=C(Nc1ccc(CNC2=NCCN2)cc1)c1cc(-c2cc(Cl)ccc2O)[nH]n1 [Compound 8C] | 49 (≈ 20.1 µg/mL) | 49 ± 1 (≈ 20.1 µg/mL) | 670 | 21.5 (≈ 8.83 µg/mL) | 21.5 (≈ 8.83 µg/mL) | > 64 | 12 | > 50 | > 50 | < 10 | > 50000 | 10 |  |  |  |  |  | 
CC(C)(C)OC(=O)N1CCN(c2ccc(NC(=O)c3cc(-c4cc(Cl)ccc4O)[nH]n3)cc2C(F)(F)F)CC1 [Compound 12B, tert-Butyl 4-(4-(5-(5-chloro-2-hydroxyphenyl)-1H-pyrazole-3-carboxamido)-2-(trifluoromethyl)phenyl)piperazine-1-carboxylate] | > 50 | > 50 | 560 | > 50 |  |  |  | > 50 | > 50 |  | > 50000 |  | < 10 | < 10 | < 8 |  |  | 
N=C(N)NCc1cccc(NC(=O)c2cc(-c3cc(Cl)ccc3O)[nH]n2)c1 [Compound 7G] | 22 (≈ 8.47 µg/mL) | 22 ± 2 (≈ 8.47 µg/mL) | 210 | 13 (≈ 5 µg/mL) | 13 ± 3 (≈ 5 µg/mL) | 64 (≈ 24.6 µg/mL) | 24 | 49 (≈ 18.9 µg/mL) | 49 (≈ 18.9 µg/mL) |  | > 50000 | 56 |  |  |  | ≥ 45 |  | 
N=C(N)N1CCN(c2ccc(NC(=O)c3cc(-c4cc(Cl)ccc4O)[nH]n3)cc2)CC1 [Compound 6G] | 26 (≈ 11.4 µg/mL) | 26 ± 2 (≈ 11.4 µg/mL) | 440 | 9 (≈ 3.96 µg/mL) | 9 ± 3 (≈ 3.96 µg/mL) | 64 (≈ 28.2 µg/mL) | 32 | 25 (≈ 11 µg/mL) | 25 ± 2 (≈ 11 µg/mL) |  | > 50000 | 55 |  |  |  | ≥ 45 |  | 
O=C(Nc1ccc(CN2CCNCC2)cc1)c1cc(-c2cc(Cl)ccc2O)[nH]n1 [Compound 4A] | > 50 | > 50 | 270 | 40 (≈ 16.5 µg/mL) | 40 ± 8 (≈ 16.5 µg/mL) | 64 (≈ 26.4 µg/mL) | 24 | 40 (≈ 16.5 µg/mL) | 40 ± 7 (≈ 16.5 µg/mL) | 34 | 13000 | 62 |  | 24.2 ± 7.7 |  |  |  | 
NCc1cc(NC(=O)c2cc(-c3cc(Cl)ccc3O)[nH]n2)cc(C(F)(F)F)c1 [Compound 9A, N-(3-(Aminomethyl)-5-(trifluoromethyl)phenyl)-5-(5-chloro-2-hydroxyphenyl)-1H-pyrazole-3-carboxamide] | 12.1 (≈ 4.97 µg/mL) | 12.1 ± 0.6 (≈ 4.97 µg/mL) | 82 | 8 (≈ 3.29 µg/mL) | 8 ± 3 (≈ 3.29 µg/mL) | 32 (≈ 13.1 µg/mL) |  | 11 (≈ 4.52 µg/mL) | 10.8 ± 2.5 (≈ 4.44 µg/mL) | < 10 | 7000 | < 10 |  |  |  |  | 48.9 ± 0.5 (≈ 20.1 µg/mL) | 49 (≈ 20.1 µg/mL)
O=C(Nc1cc(N2CCN(C3=NCCN3)CC2)cc(C(F)(F)F)c1)c1cc(-c2cc(Cl)ccc2O)[nH]n1 [Compound 11C, 5-(5-Chloro-2-hydroxyphenyl)-N-(3-(4-(4,5-dihydro-1H-imidazol-2-yl)piperazin-1-yl)-5-(trifluoromethyl)phenyl)-1H-pyrazole-3-carboxamide] | 8 (≈ 4.27 µg/mL) | 8 ± 2 (≈ 4.27 µg/mL) | 590 | 7 (≈ 3.74 µg/mL) | 7 ± 2 (≈ 3.74 µg/mL) | 8 (≈ 4.27 µg/mL) | 53 | 7 (≈ 3.74 µg/mL) | 7 ± 2 (≈ 3.74 µg/mL) | 63 | > 50000 | < 10 |  |  |  |  |  | 
O=C(Nc1cccc(F)c1)c1cc(-c2cc(Cl)ccc2O)[nH]n1 [Compound 1b] | > 50 | > 50 | 700 | > 50 |  |  |  | > 50 | > 50 |  |  |  |  |  | < 8 |  |  | 
N=C(N)N1CCN(c2cccc(NC(=O)c3cc(-c4cc(Cl)ccc4O)[nH]n3)c2)CC1 [Compound 5G] | 23.1 (≈ 10.2 µg/mL) | 23.1 ± 0.5 (≈ 10.2 µg/mL) | 930 | 11 (≈ 4.84 µg/mL) | 11 ± 2 (≈ 4.84 µg/mL) | 64 (≈ 28.2 µg/mL) | < 10 | 48 (≈ 21.1 µg/mL) | 48 ± 1 (≈ 21.1 µg/mL) | 32 | > 50000 | 31 |  |  |  |  |  | 
